Test results published in publication PMC12248599, “Exploring the Bioavailability of Red Grape Skin Extract Polyphenols: A Caco-2 Cell Model Study” (Foods, 2025).
Several values for one entry are separate records, joined by “and”; a condition that tells them apart may be missing. Equal values may be shown once. Marks after values point to notes of the source that are not given here. Values belong to the compound of their own block, whether it stands above or below them.

Key:
[1] = Caco-2 monolayer transport (bioavailability) study, AB and BA directions; assay type: in vitro ADME, Homo sapiens; settings: human
Protocol: (§1) A reversed phase C18 column (Luna 5 μm C18(2) 100 Å, LC Column 250 × 4.6 mm, Phenomenex) was used to separate the polyphenols at a flow rate of 0.7 mL/min with an injection volume of 60 µL. The detection was carried out at 520 nm for anthocyanins (M3G, D3G and Pet3G), at 328 nm for CA, at 356 nm for flavonols (Q3G, K3Gal and K3G) and at 280 nm for GA and SA. The mobile phases were (A) acetonitrile 100% and (B) water 0.1% trifluoroacetic acid (v/v). The gradient was programmed as follows: 10% A 0 min, 10–80% A (0–20 min), 80–100% A (20–25 min), 100% A (25–30 min); 10% A (30–35 min) and 10% A (35–40 min). Every polyphenol was quantified using the corresponding reference standard calibration curve. Each of the quantified phenolic compound concentration was expressed as mg/mL
(§2) For the transport experiment Caco-2 cells were cultured at a density of 4 × 10^4 cells/cm^2 in Transwell inserts (12 mm i.d., 1.12 cm^2 growth area, 0.4 µm mean pore size polycarbonate membranes, Corning Inc., Milwaukee, WI, USA) placed in 12-well plates. Caco-2 cells were grown in DMEM in an incubator at 37 °C in a humidified atmosphere containing 5% CO2.
(§3) Bioavailability studies were performed in triplicate after 21 days of cell growth. Only inserts with stable TEER values higher than ≥300 Ω cm^2 were considered acceptable to perform the bioavailability study. For that purpose, DMEM media was removed, the monolayer was washed with PBS and HBSS was supplied to the cells.
(§4) Likewise, the GSE stock solution was diluted in HBSS medium to prepare GSE solutions S1 and S2. GSE solutions S1 and S2 had concentrations of 15 mg/mL and 22 mg/mL, respectively. These concentrations were established considering previous studies with grape pomace extracts that concluded that intestinal concentrations of 1–2% (w/v) show potential bioactivities and are safe to be used as a food ingredient.
(§5) The apical side represents the intestinal lumen and the basolateral side represents the bloodstream. Each sample (100 µL) was immediately acidified with 1M HCl to a final concentration of 0.007 M and subsequently frozen at −20 °C until analysis by HPLC (according to the method described in Section 2.5). Each experiment was carried out on 3 individual wells. The transport efficiency (TE) percentage was calculated according to Equation (2):Transport efficiency (%) = (C/C0) × 100(2) where, C is the polyphenol concentration at the acceptor side over time and C0 is the initial concentration at the donor side. TE values were calculated for the nine polyphenols identified in the grape skin extract.
(§6) The apparent permeability coefficient (Papp) of the polyphenols in GSE was calculated for apical to basolateral side (AB) and basolateral to apical side (BA) flux studies according to Equation (3):Papp (cm/s) = (dQ/dt) × (VR/AC0)(3) where, dQ/dt is the permeability rate which means the steady-state linear rate of change of concentration (mg/L) per second (s) at the acceptor side; A is the surface area of the cell monolayer (1.12 cm^2). C0 is the initial concentration at the donor side (mg/L) at t = 0 s and VR is the volume of the solution of the acceptor side (mL).
(§7) The efflux ratio (ER) of the polyphenol was assessed by calculating the Equation (4):ER = Papp (BA)/Papp (AB)(4) where, Papp (BA) is the apparent permeability coefficient of the polyphenol from basolateral to apical side and Papp (AB) is the apparent permeability coefficient from apical to basolateral side. ER is a measure of the relative contributions of active and passive transport to bi-direction flux across the cell monolayer.

Caco-2 cell monolayer = test: as above; assay type: in vitro ADME, Homo sapiens; settings: for reduction in concentration on the apical (donor) side: 0 to 180 min; for TE (%) transport efficiency: after 180 min
Protocol: as §1, §2, §3, §4, §5, §6, §7

Caco-2 cells = settings: cited from earlier work
[2] = AB experiment, S2 (22 mg/mL GSE)
[3] = AB experiment, acceptor side, S2 (22 mg/mL GSE)
[4] = AB experiment, donor side, S1 (15 mg/mL GSE)
[5] = AB experiment, donor side, S2 (22 mg/mL GSE)
[6] = BA experiment, acceptor side, S1 (15 mg/mL GSE)
[7] = BA experiment, acceptor side, S2 (22 mg/mL GSE)
[8] = BA experiment, donor side, S1 (15 mg/mL GSE)
[9] = BA experiment, donor side, S2 (22 mg/mL GSE)

efflux ratio at 180 min, 22 mg/mL ([1]; Caco-2, Papp (BA)/Papp (AB), S2 (22 mg/mL GSE), read-out: ER (efflux ratio)): > 1
Papp A→B at 180 min, 22 mg/mL ([1]; Caco-2, apical to basolateral, S2 (22 mg/mL GSE)): 15 ± 1 ×10⁻⁶ cm/s
Papp B→A at 180 min, 15 mg/mL ([1]; Caco-2, basolateral to apical, S1 (15 mg/mL GSE)): 33 ± 2 ×10⁻⁶ cm/s
Papp B→A at 180 min, 22 mg/mL ([1]; Caco-2, basolateral to apical, S2 (22 mg/mL GSE)): 18 ± 1 ×10⁻⁶ cm/s
reduction in concentration on the apical (donor) side (Caco-2 cell monolayer; AB experiment, S1 (15 mg/mL GSE)): 75 ± 2%
reduction in concentration on the apical (donor) side (Caco-2 cell monolayer; [2]): 58 ± 3%
TE (%) transport efficiency (Caco-2 cell monolayer; [2]): 1.08 ± 0.01%
Basolateral Side 180 min (Caco-2 cell monolayer; AB experiment, acceptor side, S1 (15 mg/mL GSE)): undetectable
Basolateral Side 75 min (Caco-2 cell monolayer; [3]): 0.12 ± 0.01 ^b mg/L
Basolateral Side 90 min (Caco-2 cell monolayer; [3]): 0.13 ± 0.01 ^c,d mg/L
Basolateral Side 115 min (Caco-2 cell monolayer; [3]): 0.14 ± 0.01 ^d,c mg/L
Basolateral Side 180 min (Caco-2 cell monolayer; [3]): 0.15 ± 0.01 ^c mg/L
Apical Side 0 min (Caco-2 cell monolayer; [4]): 6.1 ± 0.3 mg/L and 6.1 ± 0.3 ^a mg/L
Apical Side 75 min (Caco-2 cell monolayer; [4]): 4.5 ± 0.2 ^b mg/L
Apical Side 90 min (Caco-2 cell monolayer; [4]): 3.2 ± 0.1 ^c mg/L
Apical Side 115 min (Caco-2 cell monolayer; [4]): 2.26 ± 0.06 ^d mg/L
Apical Side 180 min (Caco-2 cell monolayer; [4]): 1.53 ± 0.04 mg/L and 1.53 ± 0.04 ^c mg/L
Apical Side 0 min (Caco-2 cell monolayer; [5]): 14 ± 1 ^a mg/L
Apical Side 75 min (Caco-2 cell monolayer; [5]): 11.6 ± 0.9 ^b mg/L
Apical Side 90 min (Caco-2 cell monolayer; [5]): 9.2 ± 0.9 ^c mg/L
Apical Side 115 min (Caco-2 cell monolayer; [5]): 7.2 ± 0.9 ^d mg/L
Apical Side 180 min (Caco-2 cell monolayer; [5]): 6.0 ± 0.8 mg/L and 6.0 ± 0.8 ^d mg/L
detection at the acceptor side (Caco-2 cell monolayer; AB experiments, basolateral side): detected
TE (%) transport efficiency (Caco-2 cell monolayer; BA experiment, S2 (22 mg/mL GSE)): 1.73 ± 0.04%
Apical Side 75 min (Caco-2 cell monolayer; [6]): 0.19 ± 0.02 ^a,b mg/L
Apical Side 90 min (Caco-2 cell monolayer; [6]): 0.23 ± 0.02 ^b,c mg/L
Apical Side 115 min (Caco-2 cell monolayer; [6]): 0.28 ± 0.02 ^c mg/L
Apical Side 180 min (Caco-2 cell monolayer; [6]): 0.33 ± 0.02 ^c mg/L
Apical Side 75 min (Caco-2 cell monolayer; [7]): 0.18 ± 0.01 ^b mg/L
Apical Side 90 min (Caco-2 cell monolayer; [7]): 0.22 ± 0.01 ^c mg/L
Apical Side 115 min (Caco-2 cell monolayer; [7]): 0.26 ± 0.01 ^d mg/L
Apical Side 180 min (Caco-2 cell monolayer; [7]): 0.30 ± 0.01 ^c mg/L
Basolateral Side 0 min (Caco-2 cell monolayer; [8]): 10.4 ± 0.7 ^a mg/L
Basolateral Side 75 min (Caco-2 cell monolayer; [8]): 9.7 ± 0.6 ^b mg/L
Basolateral Side 90 min (Caco-2 cell monolayer; [8]): 9.1 ± 0.6 ^c mg/L
Basolateral Side 115 min (Caco-2 cell monolayer; [8]): 8.5 ± 0.6 ^d mg/L
Basolateral Side 180 min (Caco-2 cell monolayer; [8]): 8.0 ± 0.6 ^c mg/L
Basolateral Side 0 min (Caco-2 cell monolayer; [9]): 17.5 ± 0.4 ^a mg/L
Basolateral Side 75 min (Caco-2 cell monolayer; [9]): 16.4 ± 0.4 ^b mg/L
Basolateral Side 90 min (Caco-2 cell monolayer; [9]): 15.4 ± 0.3 ^c mg/L
Basolateral Side 115 min (Caco-2 cell monolayer; [9]): 14.5 ± 0.3 ^c,d mg/L
Basolateral Side 180 min (Caco-2 cell monolayer; [9]): 13.7 ± 0.2 ^c mg/L
detection at the acceptor side (Caco-2 cell monolayer; BA experiments, apical side): detected
SMILES: COc1cc(-c2[o+]c3cc(O)cc(O)c3cc2O[C@@H]2O[C@H](CO)[C@@H](O)[C@H](O)[C@H]2O)cc(OC)c1O [M3G, malvidin-3-O-glucoside]
transepithelial transport M3G efficiency (Caco-2 cells; Caco-2 cells, rabbiteye blueberry extract, depending on initial extract concentration, after 2 h): 6.93–7.31%
M3G transport efficiency (Caco-2 cells; after 240 min): 0.35%

detection at the acceptor side of the Caco-2 cell monolayer (Caco-2 cell monolayer; AB and BA experiments): not detected
Apical Side 0 min (Caco-2 cell monolayer; [4]): 1.8 ± 0.1 ^a mg/L
Apical Side 75 min (Caco-2 cell monolayer; [4]): 1.4 ± 0.1 ^b mg/L
Apical Side 90 min (Caco-2 cell monolayer; [4]): 1.2 ± 0.1 ^c mg/L
Apical Side 115 min (Caco-2 cell monolayer; [4]): 1.02 ± 0.10 ^c,d mg/L
Apical Side 180 min (Caco-2 cell monolayer; [4]): 0.9 ± 0.1 ^d mg/L
Apical Side 0 min (Caco-2 cell monolayer; [5]): 4.4 ± 0.2 ^a mg/L
Apical Side 75 min (Caco-2 cell monolayer; [5]): 4.0 ± 0.1 ^b mg/L
Apical Side 90 min (Caco-2 cell monolayer; [5]): 3.7 ± 0.1 ^c mg/L
Apical Side 115 min (Caco-2 cell monolayer; [5]): 3.33 ± 0.09 ^c mg/L
Apical Side 180 min (Caco-2 cell monolayer; [5]): 3.16 ± 0.08 ^c mg/L
Basolateral Side 0 min (Caco-2 cell monolayer; [8]): 4.3 ± 0.1 ^a mg/L
Basolateral Side 75 min (Caco-2 cell monolayer; [8]): 4.0 ± 0.1 ^b mg/L
Basolateral Side 90 min (Caco-2 cell monolayer; [8]): 3.8 ± 0.1 ^b,c mg/L
Basolateral Side 115 min (Caco-2 cell monolayer; [8]): 3.65 ± 0.09 ^c,d mg/L
Basolateral Side 180 min (Caco-2 cell monolayer; [8]): 3.49 ± 0.08 ^d mg/L
Basolateral Side 0 min (Caco-2 cell monolayer; [9]): 3.1 ± 0.2 ^a mg/L
Basolateral Side 75 min (Caco-2 cell monolayer; [9]): 3.0 ± 0.2 ^a mg/L
Basolateral Side 90 min (Caco-2 cell monolayer; [9]): 2.9 ± 0.2 ^a mg/L
Basolateral Side 115 min (Caco-2 cell monolayer; [9]): 2.7 ± 0.2 ^a mg/L
Basolateral Side 180 min (Caco-2 cell monolayer; [9]): 2.7 ± 0.2 ^a mg/L
SMILES: COc1cc(-c2[o+]c3cc(O)cc(O)c3cc2O[C@@H]2O[C@H](CO)[C@@H](O)[C@H](O)[C@H]2O)cc(O)c1O [Pet3G, petunidin-3-O-glucoside]
